Source: publication PMC7038160, “Design, Synthesis, and Evaluation of Acetylcholinesterase and Butyrylcholinesterase Dual-Target Inhibitors against Alzheimer’s Diseases” (Molecules, 2020)
Entries after “also recorded” stand apart in the source; their conditions may differ.

Assays:
[1] = biological target: T1, AChE from Electrophorus electricus (eeAChE) (Electrophorus electricus, UniProt O42275); test: biochemical; type: biochemical; conditions: for SI (selectivity index = AChE IC50/BChE IC50): eeAChE IC50 / eqBChE IC50; for IC50 / AChE IR (inhibitory rate): eeAChE from electric eel; for IC50: mean ± SEM of triplicate independent experiments; for AChE IR (inhibitory rate): compounds under 100 μM
T1 construct: purchased Sigma-Aldrich
T1 sequence (O42275 24-633): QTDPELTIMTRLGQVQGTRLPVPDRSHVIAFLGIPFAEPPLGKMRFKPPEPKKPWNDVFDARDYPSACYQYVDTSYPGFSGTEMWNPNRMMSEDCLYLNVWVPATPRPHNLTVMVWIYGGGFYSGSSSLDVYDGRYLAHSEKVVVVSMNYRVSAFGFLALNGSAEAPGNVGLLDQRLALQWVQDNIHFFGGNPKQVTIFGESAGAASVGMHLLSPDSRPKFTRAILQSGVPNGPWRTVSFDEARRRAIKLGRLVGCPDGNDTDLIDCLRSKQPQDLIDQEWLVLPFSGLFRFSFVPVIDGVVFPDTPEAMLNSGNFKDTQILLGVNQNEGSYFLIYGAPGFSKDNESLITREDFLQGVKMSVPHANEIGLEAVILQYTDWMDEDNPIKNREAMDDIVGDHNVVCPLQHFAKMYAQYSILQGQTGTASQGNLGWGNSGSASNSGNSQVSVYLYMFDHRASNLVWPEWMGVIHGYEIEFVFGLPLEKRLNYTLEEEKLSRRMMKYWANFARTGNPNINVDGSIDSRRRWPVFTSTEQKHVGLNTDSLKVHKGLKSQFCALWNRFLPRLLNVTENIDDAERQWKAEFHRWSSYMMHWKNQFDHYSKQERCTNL
Procedure: (§1) According to the method described by Ellman, the data were expressed by IC50 values.
(§2) The inhibitory activity of the target compound against AChE (from Electrophorus electricus (eeAChE), Sigma-Aldrich, Munich, Germany) and horse serum BChE (eqBChE, Sigma-Aldrich, Munich, Germany) were measured by Ellman’s method. In 96-well plates, a mixture of phosphate buffer (0.1 M, pH 8.0, […]), 5,5′-dithiobis-2-nitrobenzoic acid (DTNB, 60 μL), acetylcholinesterase or butyrylcholinesterase (20 μL, 5 IU/mL) and different concentrations of the compounds solution (30 μL) was pre-incubated for 5 min and then substrates (acetylthiocholine iodide or butyrylthiocholine iodide, 20 μL) were added.
(§3) The measurement of each concentration for each compound was detected in triplicate. GraphPad Prism 6.0 (GraphPad Software, Inc., La Jolla, CA, USA) was used for data processing. The inhibition curve was fitted by plotting the logarithm of the concentration of the tested compounds with the percentage of enzyme activity (reference to 100%). The (IC50) value was calculated according to the inhibition curve and the data were shown in the layout of mean ± SEM by GraphPad Prism 6.0.

[2] = biological target: T2, horse serum BChE (eqBChE) (Equus caballus, UniProt P81908); test: biochemical; type: biochemical; conditions: eqBChE from horse serum; for IC50: mean ± SEM of triplicate independent experiments; for BChE IR (inhibitory rate): compounds under 100 μM
T2 construct: horse serum BChE (eqBChE, Sigma-Aldrich, Munich, Germany); purchased Sigma-Aldrich; host or cells: horse serum
T2 sequence (P81908 whole entry): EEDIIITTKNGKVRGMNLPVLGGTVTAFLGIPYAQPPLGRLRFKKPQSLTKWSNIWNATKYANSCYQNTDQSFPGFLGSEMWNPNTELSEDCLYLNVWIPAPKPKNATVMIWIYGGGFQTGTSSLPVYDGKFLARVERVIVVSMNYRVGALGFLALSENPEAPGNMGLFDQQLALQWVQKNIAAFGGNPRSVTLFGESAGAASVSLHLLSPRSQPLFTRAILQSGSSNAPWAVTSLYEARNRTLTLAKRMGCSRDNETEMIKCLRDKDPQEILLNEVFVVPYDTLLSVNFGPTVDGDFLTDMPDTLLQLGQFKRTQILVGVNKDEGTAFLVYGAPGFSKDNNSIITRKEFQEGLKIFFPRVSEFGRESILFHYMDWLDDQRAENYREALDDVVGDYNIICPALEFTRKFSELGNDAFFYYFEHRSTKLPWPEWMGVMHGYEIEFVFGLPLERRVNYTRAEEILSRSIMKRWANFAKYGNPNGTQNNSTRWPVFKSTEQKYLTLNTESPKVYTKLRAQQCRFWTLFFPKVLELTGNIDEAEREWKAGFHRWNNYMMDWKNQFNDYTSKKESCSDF
Procedure: as §1, §2, §3

eqBChE [3] = biological target: T3, eqBChE (Equus caballus, UniProt P81908); parameters: method as in earlier work; conditions: lead compound from previous virtual screening; cited from earlier work
T3 construct: horse serum BChE (eqBChE, Sigma-Aldrich, Munich, Germany); purchased Sigma-Aldrich; host or cells: horse serum
T3 sequence (P81908 whole entry): as above

eqBChE [4] = biological target: T3, eqBChE; test: Kinetics of BChE inhibition (Lineweaver–Burk plots); type: biochemical; conditions: substrate 90-904 μM
Procedure: (§4) To determine the kinetic types of AChE and BChE inhibition, compounds 8i and 10s were selected for kinetic studies. In each case, the kinetic types of enzyme inhibition were obtained by the modified Ellman’s method and the Lineweaver–Burk secondary plots. […] According to the result of molecular docking study.
(§5) Kinetic studies were performed in the same manner as the determination of ChEs inhibition, with substrate (ATC/BTC) concentrations of 90, 150, 226, 452 and 904 μM. The concentration of compound 8i was set to 0, 0.25, 0.5, 0.75, 1 μM, and the concentration of compound 10s was set to 1, 2.5, 5, 7.5, 10 μM. The enzymatic reaction was extended to 7 min for eeAChE and eqBChE before the determination of the absorption. The Vmax and Km values of Michaelis-Menten kinetics were calculated by nonlinear regression from the substrate-velocity curves using GraphPad Prism 6.0. Linear regression was used to fit the Lineweaver–Burk plot.

PC12 cells = test: Cytotoxicity in PC12 cells (MTT assay); type: cell-based; conditions: 10, 20, 30 and 50 μM, 24 h
Procedure: We focused on the cytotoxicity of the synthetic compounds. The reason for using PC12 is that our compounds act on the central nervous system, so we need to find out whether the compound has a toxic effect on normal nerve cells. Compounds 6b, 6c, 6d, 10s, 8i, and 10v were selected as representative compounds to assess their potential cytotoxic effects.
Pheochromocytoma-derived cell line (PC12 cells) were grown in Dulbecco’s Modified Eagle Medium (DMEM) supplemented with 10% FBS at 37 °C in a humidified atmosphere containing 5% CO2. To carry out the experiment, cells (6 × 10^3 cells/well) were seeded in 96-well plate in complete medium. […]

eeAChE = biological target: T4, eeAChE (Electrophorus electricus, UniProt O42275); test: Kinetics of AChE inhibition (Lineweaver–Burk plots); type: biochemical, Electrophorus electricus (electric eel); conditions: substrate 90-904 μM
T4 construct: purchased Sigma-Aldrich
T4 sequence (O42275 24-633): as the sequence (O42275 24-633) above
Procedure: as §4, §5

## O=C(NCC1CCN(Cc2ccccc2Cl)CC1)c1ccc2[nH]ccc2c1 [Compound 6b, N-((1-(2-Chlorobenzyl)piperidin-4-yl)methyl)-1H-Indole-5-carboxamide]
[1]
  SI (selectivity index = AChE IC50/BChE IC50): 1.57
  IC50: 15 ± 6.17 µM
[2]
  IC50: 9.56 ± 4.52 µM

## COc1ccc(CN2CCC(CNC(=O)c3ccc4[nH]ncc4c3)CC2)cc1 [Compound 11b]
[1]
  AChE IR (inhibitory rate): 48.57%

## COc1ccc(CN2CCC(CNC(=O)c3ccc4[nH]nnc4c3)CC2)cc1 [Compound 6f, N-((1-(4-Methoxybenzyl)piperidin-4-yl)methyl)-1H-benzo[d][1,2,3]triazole-5-carboxamide]
[1]
  AChE IR (inhibitory rate): 43.07%
[2]
  BChE IR (inhibitory rate): 49.63%

## Cn1c(=O)n(C)c2cc(S(=O)(=O)NCC3CCN(Cc4ccc(F)cc4)CC3)ccc21 [Compound G801-0274]
eqBChE [3]
  IC50: 0.03 µM

## O=C1Cc2cc(C(=O)NCC3CCN(Cc4ccccc4)CC3)ccc2N1 [Compound 8i, N-((1-Benzylpiperidin-4-yl)methyl)-2-Oxoindoline-5-carboxamide]
[1]
  SI (selectivity index = AChE IC50/BChE IC50): 1.39
  IC50: 0.39 ± 0.04 µM
[2]
  IC50: 0.28 ± 0.1 µM
eqBChE [4]
  kinetic type of BChE inhibition: mixed-type inhibition
PC12 cells
  cytotoxicity compared with Tacrine: lower than that of Tacrine; also recorded: less toxic than Tacrine; also recorded: lowest toxicity
eeAChE
  kinetic type of AChE inhibition: mixed-type inhibition

## O=C(NCC1CCN(Cc2ccccc2)CC1)c1ccc2[nH]cnc2c1 [Compound 6d, N-((1-Benzylpiperidin-4-yl)methyl)-1H-benzo[d]imidazole-5-carboxamide]
[1]
  SI (selectivity index = AChE IC50/BChE IC50): 2.23
  IC50: 4.8 ± 0.68 µM
[2]
  IC50: 2.15 ± 0.63 µM
PC12 cells
  cytotoxicity compared with Tacrine: less toxic than Tacrine

## Cc1ccc(S(=O)(=O)NCC2CCN(Cc3ccccc3)CC2)cc1 [Compound 10s, N-((1-Benzylpiperidin-4-yl)methyl)-4-methylbenzenesulfonamide]
[1]
  SI (selectivity index = AChE IC50/BChE IC50): 1.03
  IC50: 4.24 ± 2.44 µM
[2]
  IC50: 4.1 ± 3.74 µM
eqBChE [4]
  kinetic type of BChE inhibition: same inhibition type
PC12 cells
  cytotoxicity compared with Tacrine: slightly more toxic than Tacrine
eeAChE
  kinetic type of AChE inhibition: same inhibition type

## COc1ccc(CN2CCC(CNC(=O)c3ccc4[nH]cnc4c3)CC2)cc1 [Compound 11d]
[1]
  AChE IR (inhibitory rate): 18.81%

## O=C(CC1CCN(CCc2ccccc2)CC1)Nc1ccc2[nH]cnc2c1 [Compound 16c, N-(1H-Benzo[d]imidazol-5-yl)-2-(1-phenethylpiperidin-4-yl)acetamide]
[1]
  AChE IR (inhibitory rate): no inhibitory activity and no
[2]
  BChE IR (inhibitory rate): 30.59%

## Cc1ccc(S(=O)(=O)NCC2CCN(Cc3ccc(C(F)(F)F)cc3)CC2)cc1 [Compound 10v, 4-Methyl-N-((1-(4-(trifluoromethyl)benzyl)piperidin-4-yl)methyl)benzenesulfonamide]
[1]
  SI (selectivity index = AChE IC50/BChE IC50): 1.01
[2]
  IC50: 7.14 ± 5.27 µM

## Cc1ccc(S(=O)(=O)NCC2CCN(Cc3ccccc3Cl)CC2)cc1 [Compound 10t, N-((1-(2-Chlorobenzyl)piperidin-4-yl)methyl)-4-methylbenzenesulfonamide]
[1]
  SI (selectivity index = AChE IC50/BChE IC50): 2.74
  IC50: 5.5 ± 2.56 µM
[2]
  IC50: 2.01 ± 0.7 µM

## O=C(NCC1CCN(Cc2ccccc2)CC1)c1ccc2[nH]ccc2c1 [Compound 6a, N-((1-Benzylpiperidin-4-yl)methyl)-1H-indole-5-carboxamide]
[1]
  SI (selectivity index = AChE IC50/BChE IC50): 1.66
  IC50: 52.1 ± 30.2 µM
[2]
  IC50: 31.4 ± 15.6 µM

## COc1ccc(CN2CCC(CNS(=O)(=O)c3ccc(C)cc3)CC2)cc1 [Compound 10u, N-((1-(4-Methoxybenzyl)piperidin-4-yl)methyl)-4-methylbenzenesulfonamide]
[1]
  AChE IR (inhibitory rate): 11.61%
[2]
  BChE IR (inhibitory rate): 18.31%

## O=C(NCC1CCN(Cc2ccccc2Cl)CC1)c1ccc2[nH]nnc2c1 [Compound 6g, N-((1-(2-Chlorobenzyl)piperidin-4-yl)methyl)-1H-benzo[d][1,2,3]triazole-5-carboxamide]
[1]
  SI (selectivity index = AChE IC50/BChE IC50): 0.58
  IC50: 29.2 ± 16.4 µM
[2]
  IC50: 49.9 ± 37.3 µM

## O=C(NCC1CCN(Cc2ccccc2)CC1)c1ccc2[nH]ncc2c1 [Compound 6c, N-((1-Benzylpiperidin-4-yl)methyl)-1H-indazole-5-carboxamide]
[1]
  SI (selectivity index = AChE IC50/BChE IC50): 0.25
  IC50: 9.06 ± 2.57 µM
[2]
  IC50: 36.6 ± 17.5 µM
PC12 cells
  cytotoxicity compared with Tacrine: less toxic than Tacrine

## COc1ccc(CN2CCC(CNC(=O)c3ccc4c(c3)CC(=O)N4)CC2)cc1 [Compound 8k, N-((1-(4-Methoxybenzyl)piperidin-4-yl)methyl)-2-Oxoindoline-5-carboxamide]
[1]
  AChE IR (inhibitory rate): no
[2]
  BChE IR (inhibitory rate): 22.26%

## O=C(CC1CCN(CCc2ccccc2Cl)CC1)Nc1ccc2[nH]ccc2c1 [Compound 16b, 2-(1-(2-Chlorophenethyl)piperidin-4-yl)-N-(1H-indol-5-yl)acetamide]
[1]
  AChE IR (inhibitory rate): 8.95%
[2]
  BChE IR (inhibitory rate): 31.21%

## O=C(NCC1CCN(Cc2ccc(C(F)(F)F)cc2)CC1)c1ccc2[nH]nnc2c1 [Compound 6h, N-((1-(4-(Trifluoromethyl)benzyl)piperidin-4-yl)methyl)-1H-benzo[d][1,2,3]triazole-5-carboxamide]
[1]
  IC50: 40.2 ± 27.6 µM
[2]
  BChE IR (inhibitory rate): 30.71%

## O=C(NCC1CCN(Cc2ccc(C(F)(F)F)cc2)CC1)c1ccc2[nH]cnc2c1 [Compound 6e, N-((1-(4-(Trifluoromethyl)benzyl)piperidin-4-yl)methyl)-1H-benzo[d]imidazole-5-carboxamide]
[1]
  IC50: 48.5 ± 36.2 µM
[2]
  BChE IR (inhibitory rate): 39.88%

## O=C1Cc2cc(C(=O)NCC3CCN(Cc4ccccc4Cl)CC3)ccc2N1 [Compound 8j, N-((1-(2-Chlorobenzyl)piperidin-4-yl)methyl)-2-Oxoindoline-5-carboxamide]
[1]
  AChE IR (inhibitory rate): 14.69%
[2]
  BChE IR (inhibitory rate): 22.87%

## O=C(CC1CCN(CCc2ccccc2Cl)CC1)Nc1ccc2[nH]cnc2c1 [Compound 16d, N-(1H-Benzo[d]imidazol-5-yl)-2-(1-(2-chlorophenethyl)piperidin-4-yl)acetamide]
[1]
  AChE IR (inhibitory rate): 8.55%
[2]
  BChE IR (inhibitory rate): 38.04%

## O=C(CC1CCN(CCc2ccccc2)CC1)Nc1ccc2[nH]ccc2c1 [Compound 16a, N-(1H-Indol-5-yl)-2-(1-phenethylpiperidin-4-yl)acetamide]
[1]
  AChE IR (inhibitory rate): 8.61%
[2]
  BChE IR (inhibitory rate): 23.49%

## O=C1Cc2cc(C(=O)NCC3CCN(Cc4ccc(C(F)(F)F)cc4)CC3)ccc2N1 [Compound 8l, 2-Oxo-N-((1-(4-(trifluoromethyl)benzyl)piperidin-4-yl)methyl)indoline-5-carboxamide]
[1]
  IC50: 21.5 ± 9.37 µM
[2]
  BChE IR (inhibitory rate): 35.20%
